Experimental data published in US20090029955A1, “Pyridothienopyrimidine Derivatives” (priority 2004, published 2009).

Tested on: PDE4
Assay: PDE4 Assay Procedure ([3H]-cAMP SPA)
Format: biochemical
Conditions: 15 nM [3H]-cAMP, 1 hour at room temperature, SPA beads; compounds tested from 10 μM to 10 pM
Experimental: Compounds to be tested were resuspended in DMSO at a stock concentration of 1 mM. […] These dilutions were done in 96-well plates. In some cases, plates containing diluted compounds were frozen before being assayed. In these cases, the plates were thawed at room temperature and stirred for 15 minutes.
Ten microliters of the diluted compounds were poured into a “low binding” assay plate. […] The reaction was initiated by adding ten microliters of a solution containing PDE4. The plate was then incubated under stirring for 1 hour at room temperature. After incubation the reaction was stopped with 50 microlitres of SPA beads, and the reaction was allowed to incubate for another 20 minutes at room temperature before measuring radioactivity using standard instrumentation.
The reaction mixture was prepared by adding 90 ml of H2O to 10 ml of 10× assay buffer (500 mM Tris pH 7.5, 83 mM MgCl2, 17 mM EGTA), and 40 microlitres 1 μCi/μL [3H]-cAMP. SPA beads solution was prepared by adding 500 mg to 28 ml H2O for a final concentration of 20 mg/ml beads and 18 mM zinc sulphate.

Row | Compound | IC50 [nM]
1 | CC1(C)CCc2c(N3CCCC3)nc3sc4c(NCCN5CCOCC5)ncnc4c3c2C1 [Example 23, 2,2-Dimethyl-N-(2-morpholin-4-ylethyl)-5-pyrrolidin-1-yl-1,2,3,4-tetrahydropyrimido[4′,5′:4,5]thieno[2,3-c]isoquinolin-8-amine] | 8.1
2 | CN(C)c1nc2sc3c(NCc4cccnc4)ncnc3c2c2c1CC(C)(C)C2 [Example 79, N^4,N^4,2,2-Tetramethyl-N-(pyridin-3-ylmethyl)-2,3-dihydro-1H-cyclopenta[4′,5′]pyrido[3′,2′:4,5]thieno[3,2-d]pyrimidin-4,7-diamine] | 4.6
3 | CC1(C)CCc2c(N3CCCC3)nc3sc4c(NCc5cccnc5)ncnc4c3c2C1 [Example 25] | 1.5
4 | CC1(C)CCc2c(-c3ccco3)nc3sc4c(NCCN5CCOCC5)ncnc4c3c2C1 [Example 62, 5-(2-Furyl)-2,2-dimethyl-N-(2-morpholin-4-ylethyl)-1,2,3,4-tetrahydropyrimido[4′,5′:4,5]thieno[2,3-c]isoquinolin-8-amine] | 3.8
5 | CCOC(=O)N1CCN(CCNc2ncnc3c2sc2nc(N(C)C)c4c(c23)CC(C)(C)CC4)CC1 [Example 43, Ethyl 4-(2-{[5-(dimethylamino)-2,2-dimethyl-1,2,3,4-tetrahydropyrimido[4′,5′:4,5]thieno[2,3-c]isoquinolin-8-yl]amino}ethyl)piperazine-1-carboxylate] | 7.9
6 | CC(C)Cc1nc2sc3c(NCCCN4CCCC4=O)ncnc3c2c2c1CCC(C)(C)C2 [Example 60, 1-{3-[(5-Isobutyl-2,2-dimethyl-1,2,3,4-tetrahydropyrimido[4′,5′:4,5]thieno[2,3-c]isoquinolin-8-yl)amino]propyl}pyrrolidin-2-one] | 4.8
7 | CC1(C)CCc2c(N3CCSCC3)nc3sc4c(NCc5ccccn5)ncnc4c3c2C1 [Example 16, 2,2-Dimethyl-N-(pyridin-2-ylmethyl)-5-thiomorpholin-4-yl-1,2,3,4-tetrahydropyrimido[4′,5′:4,5]thieno[2,3-c]isoquinolin-8-amine] | 3
8 | CC1(C)CCc2c(N3CCCC3)nc3sc4c(NCc5ccncc5)ncnc4c3c2C1 [Example 24, 2,2-Dimethyl-N-(pyridin-4-ylmethyl)-5-pyrrolidin-1-yl-1,2,3,4-tetrahydropyrimido[4′,5′:4,5]thieno[2,3-c]isoquinolin-8-amine] | 14
9 | CCN(C)c1nc2sc3c(NCC(=O)NCC4CCCO4)ncnc3c2c2c1CCC(C)(C)C2 (stereo not drawn) [Example 54, N^2-{5-[Ethyl(methyl)amino]-2,2-dimethyl-1,2,3,4-tetrahydropyrimido[4′,5′:4,5]thieno[2,3-c]isoquinolin-8-yl}-N^1-(tetrahydrofuran-2-ylmethyl)glycinamide] | 10
